Measured values taken from PMC6836411, “Identification and characterization of the Cucurbitacins, a novel class of small-molecule inhibitors of Tropomyosin receptor kinase a” (BMC Complementary and Alternative Medicine, 2019).

Legend:
Assay type in all cases: biochemical
[1] = target: T1, Tropomyosin receptor kinase A (TrkA) (Homo sapiens, UniProt P04629); assay: radiometric [γ-33P]ATP kinase assay, poly(Glu,Tyr) substrate, dose-response
T1 construct: gene NTRK1

CAMK1 = CAMK1 (Homo sapiens, UniProt Q14012); assay: radiometric kinase panel, single dose […], duplicate; details: read-out: % remaining activity at 500 nM
Sequence of CAMK1 (Q14012 whole entry): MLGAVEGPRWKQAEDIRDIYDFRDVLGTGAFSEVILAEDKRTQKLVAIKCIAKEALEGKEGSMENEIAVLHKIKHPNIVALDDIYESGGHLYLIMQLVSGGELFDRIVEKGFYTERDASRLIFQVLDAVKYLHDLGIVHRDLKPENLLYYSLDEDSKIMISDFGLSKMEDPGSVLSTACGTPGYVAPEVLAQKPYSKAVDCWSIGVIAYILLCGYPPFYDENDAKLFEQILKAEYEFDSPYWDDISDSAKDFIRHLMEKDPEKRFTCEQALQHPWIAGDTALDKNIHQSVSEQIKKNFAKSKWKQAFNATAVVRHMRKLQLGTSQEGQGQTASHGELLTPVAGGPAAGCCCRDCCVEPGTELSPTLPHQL

Aurora B = target: T2, Aurora B (Homo sapiens, UniProt Q96GD4); assay: as above; details: read-out: % remaining activity at 500 nM
T2 construct: gene AURKB
T2 sequence (Q96GD4 whole entry): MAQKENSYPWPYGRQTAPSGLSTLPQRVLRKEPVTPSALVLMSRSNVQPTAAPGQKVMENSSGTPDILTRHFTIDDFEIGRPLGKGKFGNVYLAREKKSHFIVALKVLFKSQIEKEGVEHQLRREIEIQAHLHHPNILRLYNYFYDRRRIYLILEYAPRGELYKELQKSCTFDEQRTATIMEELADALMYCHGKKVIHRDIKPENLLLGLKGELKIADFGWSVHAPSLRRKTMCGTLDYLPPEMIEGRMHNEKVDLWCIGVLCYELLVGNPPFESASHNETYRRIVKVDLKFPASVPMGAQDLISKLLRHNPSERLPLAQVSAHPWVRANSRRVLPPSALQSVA

T1 sequence (P04629 441-796 limits assumed): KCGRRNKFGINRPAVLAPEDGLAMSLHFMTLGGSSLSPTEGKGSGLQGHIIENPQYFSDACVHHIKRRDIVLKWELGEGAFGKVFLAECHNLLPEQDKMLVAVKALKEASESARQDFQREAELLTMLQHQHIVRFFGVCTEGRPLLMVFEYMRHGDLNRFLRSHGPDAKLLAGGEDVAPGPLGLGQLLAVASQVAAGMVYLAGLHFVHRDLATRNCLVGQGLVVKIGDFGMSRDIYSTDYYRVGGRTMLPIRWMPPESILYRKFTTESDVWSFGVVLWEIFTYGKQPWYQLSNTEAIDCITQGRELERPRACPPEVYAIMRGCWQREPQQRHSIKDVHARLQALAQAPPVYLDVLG

Structure (SMILES) | IC50 [1] [nM] | remaining activity at 0.5 µM (CAMK1) [%] | remaining activity at 0.5 µM (Aurora B) [%]
CC(=O)OC(C)(C)/C=C/C(=O)[C@](C)(O)[C@H]1[C@H](O)C[C@@]2(C)[C@@H]3CC=C4[C@@H](C[C@H](O)C(=O)C4(C)C)[C@]3(C)C(=O)C[C@]12C [CuB, Cucurbitacin B] | 178 | 12.9 ± 3.7 | 23.2 ± 2.8
CC(=O)OC(C)(C)/C=C/C(=O)[C@](C)(O)[C@H]1[C@H](O)C[C@@]2(C)[C@@H]3CC=C4[C@@H](C=C(O)C(=O)C4(C)C)[C@]3(C)C(=O)C[C@]12C [CuE, Cucurbitacin E] | 549 | – | –
CC(C)(O)/C=C/C(=O)[C@](C)(O)[C@H]1[C@H](O)C[C@@]2(C)[C@@H]3CC=C4[C@@H](C=C(O)C(=O)C4(C)C)[C@]3(C)C(=O)C[C@]12C [CuI, Cucurbitacin I] | 959 | – | –
